# Results: patent US4826850A, “Quinoline base compound, process for the preparation thereof and anticancer agent containing the same as pharmacologically efficacious component” (Mect Corporation, priority 1986, dated 1989)
# What was measured:
# KB cells = assay: Effect in inhibiting growth of KB-cells (in vitro); assay type: cell-based; details: Homo sapiens, 72 h, drug added day 1, cells counted day 4, inhibition rate 50%, read-out: Concentration giving 50% growth inhibition (ED50; Inhibition Rate 50%)
# Experimental: (1) Effect in Inhibiting Growth of KB-Cells
# The KB-cell, one of the cancer-causing tumor cells, was incubated in an in vitro floating incubation system, and the pharmacological effects of the Compounds (4) and (5) were compared with a control to which the compounds had not been added.
# KB Cells (derived from a human epidermoid carcinoma of the mouth).
# Eagles minimal essential medium (MEM)-10% calf serum.
# 37° C. in a carbon dioxide gas incubator (5% CO2).
# Day 0: The KB cells were diluted to 2×10^4 /ml medium. 3 ml of the thus diluted KB cell suspension was incubated on a 60 mm plastic dish, at 2 dishes per dose level.
# Day 1: Each drug was added into each dish so that the drug content in each dish was adjusted, respectively, to 100, 30, 10, 3 and 1 μg/ml.
# Day 4: The cells were stripped from the surface of each dish, and the number of cells was counted using a Kohlter's counter.
# A substance or drug having an ED50 value of not more than 4 μg/ml for a synthesized product was appraised as an effective substance. Meanwhile, in evaluating the effect of inhibiting growth of KB-cells, the number of surviving cells was counted by a Kohlter's counter, and the counted number was compared to that of the control (without the addition of the Compound (1)) to find the concentration of the drug for inhibiting the growth by 50%, the thus found concentration being estimated as the ED50 value.
# P-388 = assay: Effect in prolonging life of P-388 mice; assay type: in vivo, mouse; details: CDF1 mice, P-388 i.p., control 100
# Experimental: Test Example 2: Effect in Prolonging the Life of Mouse with Cancer, and Acute Toxicity of Drugs
# Using P-388 mice with cancer, the pharmacological efficacy of the aforementioned compounds was evaluated by comparing with a control to which no such compound had been added.
# Animal Used: CDF1 Mice (6 mice/group)
# Number of Incubated Cells: 10^6 cells/mouse
# Days at which Drugs Were Administered: Days 1 and 5, or days 1 to 9
# Quantities of Drugs Administered: When a drug was administered at days 1 and 5, the maximum dosed quantity was set at LD50 or 400 mg/kg/day; and when a drug was administered at days 1 to 9, the maximum dosed quantity was set at 1/2×LD50 or 200 mg/kg/day. The experiment was conducted with groups of mice being administered the respective drugs at 3 dose levels incuding the maximum level, 1/2 of the maximum level and 1/4 of the maximum level.
# When the T/C %, i.e. the ratio of the survival time (days) of a treated group (administered with a certain drug) to the survival time of a control group (administered with no drug), was 120% or more for a synthesized substance and 130% or more for a natural substance, the drug was appraised as effective (P). The survival time of the group administered with no drug is normally about 10 days (median survival time). In the following Table, an indication of "T/C 0%" means that not less than three mice were dead due to toxicity within 5 days.
# [1] = acridine derivatives, literature; cited from earlier work
Compound,IC50 (KB cells),Life Prolonging Rate (T/C) (P-388; Dosage 12.5 mg/kg),Life Prolonging Rate (T/C) (P-388; Dosage 25 mg/kg),Life Prolonging Rate (T/C) (P-388; Dosage 50 mg/kg),Anticancer effect [1],Life Prolonging Rate (T/C) (P-388; Dosage 100 mg/kg),Life Prolonging Rate (T/C) (P-388; Dosage 200 mg/kg),"Life Prolonging Rate (T/C) (P-388; Dosage 400 mg/kg, T/C 0% means not less than three mice dead due to toxicity within 5 days)"
"COc1cc(NS(C)(=O)=O)ccc1Nc1c2ccccc2nc2c1oc1ccccc12 [Compound 4, N-(4-((benzofuro(3,2-b)quinoline-11yl)amino)-3-methoxyphenyl)methane sulfoneamide]",0.3 µg/mL,180%,195%,200%,,,,
"COc1cc(NS(C)(=O)=O)ccc1Nc1c2ccccc2nc2c1sc1ccccc12 [Compound 5, N-(4-((benzothieno(3,2-b)quinoline-11-yl)amino)-3-methoxyphenyl)methanesulfoneamide]",0.3 µg/mL,138%,170%,170%,,,,
COc1cc(NS(C)(=O)=O)ccc1Nc1c2c(nc3ccccc13)CCCC2 [tetrahydroamsacrine],,,,,reduced anticancer effect,,,
"COc1cc(NS(C)(=O)=O)ccc1Nc1c2ccccc2nc2ccccc12 [amsacrine, N-(4-(9-acridinylamino)-3-methoxyphenyl)-methanesulfoneamide]",,,,,most effective derivative,,,
COc1cc(NS(C)(=O)=O)ccc1Nc1c2c(nc3ccccc13)-c1ccccc1C2 [Compound 6],< 0.3 µg/mL,166%,,217%,,240%,60%,0%
